Measurements reported in patent US20050107386A1, “Methods of treating diseases and disorders by targeting multiple kinases” (priority 2003, published 2005).

Experiments:
Format in all cases: biochemical
[1] = target: Syk(h) (Homo sapiens, UniProt P43405); assay: Syk(h) kinase assay; settings: 3 μM; percent of control kinase activity
Procedure: (§1) Six compounds (presumptive single agents) were tested against a panel of 50 kinases. The results are presented in Table 2; numbers for each kinase indicate the percent of control kinase activity in the presence of a 3μM concentration of the indicated agent.
(§2) Agents that target two or more different kinases are useful in the methods of the invention as described elsewhere herein. Such compounds may be identified, and their effect on certain kinases may be identified, using the assays briefly described below in Examples 4-83. Each of these assays was carried out as described in Davies et al., Biochem. J., 351:95-105 (2000). All assays were carried out at 10 μM ATP unless otherwise noted.
(§3) In a final reaction volume of 25 μl, Syk (h) (5-10 mU) is incubated with 50 mM Tris pH 7.5, 0.1 mM EGTA, 0.1 mM NaVanadate, 0.1% β-mercaptoethanol, 0.1 mg/ml poly(Glu, Tyr) 4:1, 10 mM MgAcetate and [γ-^33P-ATP] (specific activity approx. 500 cpm/pmol, concentration as required). The reaction is initiated by the addition of Mg^2+ [γ-^33P-ATP]. After incubation for 40 minutes at room temperature, the reaction is stopped by the addition of 5 μl of a 3% phosphoric acid solution. 10 μl of the reaction is then spotted onto a Filtermat A and washed three times for 5 minutes in 75 mM phosphoric acid and once in methanol prior to drying and scintillation counting.

[2] = target: PRK2(h) (Homo sapiens, UniProt Q16513); assay: PRK2(h) kinase assay; settings: 3 μM; percent of control kinase activity
Procedure: as §1, §2
as §3, with “PRK2” for “Syk”, “EGTA,” for “EGTA, 0.1 mM NaVanadate,”, “30 μM […] (SEQ ID NO:12),” for “0.1 mg/ml poly(Glu, Tyr) 4:1,”, “P30 filtermat” for “Filtermat A”

[3] = target: p70S6K(h) (Homo sapiens, UniProt P23443); assay: p70S6K(h) kinase assay; settings: 3 μM; percent of control kinase activity
Procedure: as §1, §2
as §3, with “μl, p70S6K” for “μl, Syk”, “with 8” for “with 50”, “mM MOPS” for “mM Tris”, “pH 7.0, 0.2” for “pH 7.5, 0.1”, “mM EDTA, 100 μM […] (SEQ ID NO:9),” for “mM EGTA, 0.1 mM NaVanadate, 0.1% β-mercaptoethanol, 0.1 mg/ml poly(Glu, Tyr) 4:1,”, “a P30 filtermat” for “a Filtermat A”

[4] = target: CDK5/p35(h) (Homo sapiens, UniProt Q00535); assay: CDK5/p35(h) kinase assay; settings: 3 μM; percent of control kinase activity
Procedure: as §1, §2
(§4) In a final reaction volume of 25 μl, CDK5/p35 (h) (5-10 mU) is incubated with 8 mM MOPS pH 7.0, 0.2 mM EDTA, 0.1 mg/ml histone H1, 10 mM MgAcetate and [γ-^33P-ATP] (specific activity approx. 500 cpm/pmol, concentration as required). The reaction is initiated by the addition of Mg^2+ [γ-^33P-ATP]. After incubation for 40 minutes at room temperature, the reaction is stopped by the addition of 5 μl of a 3% phosphoric acid solution. 10 μl of the reaction is then spotted onto a P30 filtermat and washed three times for 5 minutes in 75 mM phosphoric acid and once in methanol prior to drying and scintillation counting.

[5] = target: IGF-1R(h) (Homo sapiens, UniProt P08069); assay: IGF-1R(h) kinase assay; settings: 3 μM; percent of control kinase activity
Procedure: as §1, §2
as §3, with “IGF-IR” for “Syk”, “250 μM […] (SEQ ID NO:16), 10 mM MnCl2,” for “0.1 mg/ml poly(Glu, Tyr) 4:1,”, “P30 filtermat” for “Filtermat A”

[6] = target: PDGFRα(h) (Homo sapiens, UniProt P16234); assay: PDGFRα(h) kinase assay; settings: 3 μM; percent of control kinase activity
Procedure: as §1, §2
as §4, with “PDGFRα” for “CDK5/p35”, “poly(Glu, Tyr) 4:1, 10 mM MnCl2,” for “histone H1,”, “Filtermat A” for “P30 filtermat”

[7] = target: MEK1(h) (Homo sapiens, UniProt Q02750); assay: MEK1(h) kinase assay; settings: for Inhibitory activity (% of control), MEK1(h): 3 μM, percent of control kinase activity
Procedure: as §1, §2
The reaction is initiated by the addition of the MgATP. After incubation for 40 minutes at room temperature, 5 μl of this incubation mix is used to initiate a MAPK2 (m) assay, which is described on […].

Chain of p70S6K(h) (P23443 whole entry): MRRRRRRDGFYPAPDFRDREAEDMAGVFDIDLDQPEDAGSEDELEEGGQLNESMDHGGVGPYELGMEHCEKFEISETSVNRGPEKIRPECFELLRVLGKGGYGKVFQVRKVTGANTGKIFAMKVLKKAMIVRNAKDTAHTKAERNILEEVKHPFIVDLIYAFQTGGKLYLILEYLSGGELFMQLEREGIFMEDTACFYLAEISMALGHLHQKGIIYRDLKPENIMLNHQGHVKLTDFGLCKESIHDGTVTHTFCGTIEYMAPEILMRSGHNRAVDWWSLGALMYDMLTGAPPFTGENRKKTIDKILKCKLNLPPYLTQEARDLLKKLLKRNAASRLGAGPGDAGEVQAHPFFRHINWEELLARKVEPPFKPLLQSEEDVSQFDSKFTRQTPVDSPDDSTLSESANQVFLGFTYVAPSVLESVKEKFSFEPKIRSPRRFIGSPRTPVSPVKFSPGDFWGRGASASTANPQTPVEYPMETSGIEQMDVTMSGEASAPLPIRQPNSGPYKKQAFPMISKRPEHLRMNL
Chain of CDK5/p35(h) (Q00535 whole entry): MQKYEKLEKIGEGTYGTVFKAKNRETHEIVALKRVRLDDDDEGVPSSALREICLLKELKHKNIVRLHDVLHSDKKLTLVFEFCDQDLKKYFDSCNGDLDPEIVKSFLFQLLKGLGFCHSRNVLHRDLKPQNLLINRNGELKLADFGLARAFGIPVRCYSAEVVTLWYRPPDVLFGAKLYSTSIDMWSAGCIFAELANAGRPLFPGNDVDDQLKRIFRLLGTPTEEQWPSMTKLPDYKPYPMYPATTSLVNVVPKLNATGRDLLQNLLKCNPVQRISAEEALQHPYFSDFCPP
Chain of CDK5/p35(h) (Q15078 whole entry partner): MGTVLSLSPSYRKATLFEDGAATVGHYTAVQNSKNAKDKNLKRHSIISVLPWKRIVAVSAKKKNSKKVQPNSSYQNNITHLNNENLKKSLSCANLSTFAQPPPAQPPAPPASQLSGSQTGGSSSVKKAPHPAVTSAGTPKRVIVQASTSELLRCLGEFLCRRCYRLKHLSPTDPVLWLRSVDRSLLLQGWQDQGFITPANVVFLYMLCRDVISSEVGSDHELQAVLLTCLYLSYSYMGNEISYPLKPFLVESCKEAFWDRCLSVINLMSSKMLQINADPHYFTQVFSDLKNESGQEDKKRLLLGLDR
Chain of PDGFRα(h) (P16234 24-1089): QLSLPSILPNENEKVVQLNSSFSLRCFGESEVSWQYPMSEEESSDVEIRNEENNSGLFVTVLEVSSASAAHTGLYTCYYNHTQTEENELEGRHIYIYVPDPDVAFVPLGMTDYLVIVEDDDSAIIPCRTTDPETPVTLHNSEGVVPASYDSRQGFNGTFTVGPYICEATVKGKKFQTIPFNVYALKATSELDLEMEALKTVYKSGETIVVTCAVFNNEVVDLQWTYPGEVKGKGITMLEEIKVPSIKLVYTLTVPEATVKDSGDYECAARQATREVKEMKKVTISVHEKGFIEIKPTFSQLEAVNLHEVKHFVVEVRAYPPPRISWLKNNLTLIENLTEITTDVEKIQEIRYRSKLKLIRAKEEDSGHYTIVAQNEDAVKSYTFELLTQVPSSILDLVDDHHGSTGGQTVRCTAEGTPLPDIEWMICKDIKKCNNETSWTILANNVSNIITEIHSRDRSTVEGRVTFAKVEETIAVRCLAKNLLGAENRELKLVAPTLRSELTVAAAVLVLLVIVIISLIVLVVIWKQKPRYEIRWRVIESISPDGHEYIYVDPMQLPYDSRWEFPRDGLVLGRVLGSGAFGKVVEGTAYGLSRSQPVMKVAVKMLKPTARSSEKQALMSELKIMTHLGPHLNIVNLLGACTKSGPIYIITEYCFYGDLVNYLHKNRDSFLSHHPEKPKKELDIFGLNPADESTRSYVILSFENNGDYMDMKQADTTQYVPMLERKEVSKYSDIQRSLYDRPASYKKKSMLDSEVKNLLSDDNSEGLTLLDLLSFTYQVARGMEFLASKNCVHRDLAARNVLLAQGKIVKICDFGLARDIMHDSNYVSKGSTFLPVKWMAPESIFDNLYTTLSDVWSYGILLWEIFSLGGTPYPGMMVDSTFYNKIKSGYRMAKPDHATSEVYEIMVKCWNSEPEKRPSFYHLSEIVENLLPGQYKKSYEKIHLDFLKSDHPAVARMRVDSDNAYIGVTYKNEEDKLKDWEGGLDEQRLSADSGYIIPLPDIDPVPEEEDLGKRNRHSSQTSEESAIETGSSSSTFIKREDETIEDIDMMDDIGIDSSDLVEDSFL
Chain of IGF-1R(h) (P08069 31-1367): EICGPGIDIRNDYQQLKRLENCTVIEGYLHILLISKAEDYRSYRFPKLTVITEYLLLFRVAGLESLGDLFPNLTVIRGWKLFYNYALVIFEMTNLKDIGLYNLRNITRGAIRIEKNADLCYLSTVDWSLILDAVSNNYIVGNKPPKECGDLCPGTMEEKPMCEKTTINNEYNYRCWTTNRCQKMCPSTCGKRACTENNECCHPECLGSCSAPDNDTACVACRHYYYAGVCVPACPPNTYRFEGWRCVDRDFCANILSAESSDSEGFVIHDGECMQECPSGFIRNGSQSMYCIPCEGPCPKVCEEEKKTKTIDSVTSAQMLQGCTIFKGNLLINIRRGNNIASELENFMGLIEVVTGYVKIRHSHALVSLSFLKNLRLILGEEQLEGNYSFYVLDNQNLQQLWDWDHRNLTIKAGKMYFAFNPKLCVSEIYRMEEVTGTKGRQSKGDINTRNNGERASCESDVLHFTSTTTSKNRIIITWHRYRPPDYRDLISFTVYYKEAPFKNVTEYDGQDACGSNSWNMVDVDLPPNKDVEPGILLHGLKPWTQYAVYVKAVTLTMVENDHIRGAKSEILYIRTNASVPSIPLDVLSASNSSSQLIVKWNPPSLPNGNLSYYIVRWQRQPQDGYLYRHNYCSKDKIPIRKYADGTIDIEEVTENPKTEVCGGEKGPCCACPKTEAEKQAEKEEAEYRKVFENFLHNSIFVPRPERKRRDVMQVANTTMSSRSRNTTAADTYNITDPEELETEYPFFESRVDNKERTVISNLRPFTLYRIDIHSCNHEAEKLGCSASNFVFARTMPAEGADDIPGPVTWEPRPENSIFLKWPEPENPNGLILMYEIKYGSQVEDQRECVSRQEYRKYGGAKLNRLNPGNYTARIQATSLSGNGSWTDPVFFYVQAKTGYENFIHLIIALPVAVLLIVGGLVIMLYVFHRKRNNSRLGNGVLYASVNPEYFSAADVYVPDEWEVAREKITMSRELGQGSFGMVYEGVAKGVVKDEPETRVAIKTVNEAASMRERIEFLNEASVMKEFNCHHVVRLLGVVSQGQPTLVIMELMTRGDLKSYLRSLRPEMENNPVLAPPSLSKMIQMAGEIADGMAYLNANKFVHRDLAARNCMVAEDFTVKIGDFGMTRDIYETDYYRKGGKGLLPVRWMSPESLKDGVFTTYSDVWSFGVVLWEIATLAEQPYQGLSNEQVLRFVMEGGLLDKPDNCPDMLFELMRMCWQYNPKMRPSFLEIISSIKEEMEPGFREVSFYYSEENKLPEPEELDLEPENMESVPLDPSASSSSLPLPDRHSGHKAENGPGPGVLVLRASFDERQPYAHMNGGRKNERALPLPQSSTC
Chain of PRK2(h) (Q16513 whole entry): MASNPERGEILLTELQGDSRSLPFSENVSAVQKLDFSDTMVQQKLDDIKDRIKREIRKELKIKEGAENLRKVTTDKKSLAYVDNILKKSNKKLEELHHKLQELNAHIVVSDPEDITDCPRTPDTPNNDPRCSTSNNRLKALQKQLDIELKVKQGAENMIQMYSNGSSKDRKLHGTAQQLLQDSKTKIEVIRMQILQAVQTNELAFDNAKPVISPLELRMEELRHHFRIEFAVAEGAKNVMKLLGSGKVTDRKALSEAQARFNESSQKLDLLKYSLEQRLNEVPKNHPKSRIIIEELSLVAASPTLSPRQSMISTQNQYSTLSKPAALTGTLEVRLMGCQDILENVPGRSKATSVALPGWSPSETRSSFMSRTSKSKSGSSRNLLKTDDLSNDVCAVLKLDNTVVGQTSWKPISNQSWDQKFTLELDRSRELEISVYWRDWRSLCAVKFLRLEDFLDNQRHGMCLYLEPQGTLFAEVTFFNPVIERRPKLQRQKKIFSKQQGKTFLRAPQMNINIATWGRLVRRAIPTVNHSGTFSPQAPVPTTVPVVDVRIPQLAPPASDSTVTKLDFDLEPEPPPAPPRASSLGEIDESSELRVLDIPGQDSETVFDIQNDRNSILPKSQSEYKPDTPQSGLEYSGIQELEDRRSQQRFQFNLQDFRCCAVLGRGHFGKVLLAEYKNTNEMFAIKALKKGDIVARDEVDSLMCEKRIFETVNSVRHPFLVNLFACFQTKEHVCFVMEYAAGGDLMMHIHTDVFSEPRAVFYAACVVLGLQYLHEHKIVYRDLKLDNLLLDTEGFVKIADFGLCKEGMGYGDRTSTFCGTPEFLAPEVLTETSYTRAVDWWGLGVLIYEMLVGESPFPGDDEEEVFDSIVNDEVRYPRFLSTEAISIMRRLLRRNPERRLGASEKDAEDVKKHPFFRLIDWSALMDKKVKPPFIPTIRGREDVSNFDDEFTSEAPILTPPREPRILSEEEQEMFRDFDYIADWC
Chain of MEK1(h) (Q02750 whole entry): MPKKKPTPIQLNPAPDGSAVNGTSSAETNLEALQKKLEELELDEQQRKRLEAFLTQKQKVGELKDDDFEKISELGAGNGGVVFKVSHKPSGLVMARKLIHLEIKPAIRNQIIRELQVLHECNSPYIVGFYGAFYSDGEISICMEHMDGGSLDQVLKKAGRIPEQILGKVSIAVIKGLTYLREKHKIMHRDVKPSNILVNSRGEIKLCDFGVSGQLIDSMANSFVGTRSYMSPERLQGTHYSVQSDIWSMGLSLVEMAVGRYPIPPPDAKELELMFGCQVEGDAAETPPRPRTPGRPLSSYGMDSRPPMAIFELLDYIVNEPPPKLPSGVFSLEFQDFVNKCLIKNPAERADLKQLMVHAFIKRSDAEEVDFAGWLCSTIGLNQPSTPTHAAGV

Compound	Inhibitory activity (% of control), Syk(h) [1]	Inhibitory activity (% of control), PRK2(h) [2]	Inhibitory activity (% of control), p70S6K(h) [3]	Inhibitory activity (% of control), CDK5/p35(h) [4]	Inhibitory activity (% of control), IGF-1R(h) [5]	Inhibitory activity (% of control), PDGFRα(h) [6]	Inhibitory activity (% of control), MEK1(h) [7]	inhibitory activity against MEK1, in words ([7]; summary of Table 2)
CC(C)Cc1nc(-c2ccc3[nH]nc(-c4ccc5cc(OCCN6CCCC6)ccc5c4)c3c2)n[nH]1 [CC002, 5-(5-Isobutyl-1H-[1,2,4]Triazol-3-yl)-3-[6-(2-Pyrrolidin-1-yl-Ethoxy)-Naphthalen-2-yl]-1H-Indazole]	14 % of control	4 % of control	16 % of control	16 % of control	55 % of control	71 % of control	–	–
COc1ccc2cc(-c3n[nH]c4ccc(-c5n[nH]c(CN6CCOCC6)n5)cc34)ccc2c1 [CC001, 3-(6-Methoxynaphthalen-2-yl)-5-(5-Morpholin-4-Ylmethyl-1H-[1,2,4]Triazol-3-yl)-1H-Indazole]	26 % of control	9 % of control	17 % of control	7 % of control	92 % of control	72 % of control	4 % of control	–
CCN1CCC[C@H]1COc1ccc2cc(-c3n[nH]c4ccc(-c5nc(CC(C)(C)C)n[nH]5)cc34)ccc2c1 [CC005, 2-[((2s)-1-ethylpyrrolidin-2-yl)methoxy]-6-{5-[3-(2,2-Dimethylpropyl)(1H-1,2,4,-triazol-5-yl)](1H-indazol-3-yl)}naphthalene]	15 % of control	1 % of control	3 % of control	8 % of control	58 % of control	28 % of control	2 % of control	–
CC(C)(C)Cc1nc(-c2ccc3[nH]nc(-c4ccc5cc(OCc6ccccn6)ccc5c4)c3c2)n[nH]1 [CC004, 5-[5-(2,2-Dimethyl-propyl)-1H-[1,2,4]triazol-3-yl]-3-[6-(pyridine-2-ylmethoxy)-naphthalen-2-yl]-1H-indazole]	47 % of control	3 % of control	40 % of control	10 % of control	96 % of control	77 % of control	11 % of control	good inhibitory activity

Second part, the molecule after the results:

Inhibitory activity (% of control), Syk(h) [1]	Inhibitory activity (% of control), PRK2(h) [2]	Inhibitory activity (% of control), p70S6K(h) [3]	Inhibitory activity (% of control), CDK5/p35(h) [4]	Inhibitory activity (% of control), IGF-1R(h) [5]	Inhibitory activity (% of control), PDGFRα(h) [6]	Inhibitory activity (% of control), MEK1(h) [7]	inhibitory activity against MEK1, in words ([7]; summary of Table 2)	Compound
46 % of control	24 % of control	41 % of control	12 % of control	65 % of control	86 % of control	–	–	Fc1ccc(-c2n[nH]c3ccc(-c4n[nH]c(C5CCCC5)n4)cc23)cc1 [CC006, 5-(5-Cyclopentyl-1H-[1,2,4]triazol-3-yl)-3-(4-fluoro-phenyl)-1H-indazole, reference compound]
51 % of control	68 % of control	83 % of control	50 % of control	88 % of control	108 % of control	–	–	O=C(NC1CCCC1)c1cccc(-c2n[nH]c3ccc(-c4nc[nH]n4)cc23)c1 [CC007, 3-(5-(1H-1,2,4-triazol-3-yl)(1H-indazol-3-yl))phenyl-N-cyclopentylcarboxamide, reference compound]
